# Test results reported in US20060074032A1 (Academic Pharmaceuticals, Inc., priority 2000, published 2006).
# Read-outs that look alike come from different tables or passages of the source.
# How the values were obtained:
# IKs currents = molecular target: T1, IKs currents (Homo sapiens, UniProt P51787); conditions: cited from earlier work
# T1 construct: expressed in transfected cells; host or cells: Xenopus oocytes injected with cRNA (pSP64 poly(A) constructs)
# rat ileum = test: Rat ileum GI contractility (isometric muscle contraction); conditions: for Deflection Magnitude, percentage change from control / Slow Wave Amplitude, percentage change from control / Slow Wave Frequency, percentage change from control: n = 5
# Experimental: (§1) The ileum was harvested and placed in warmed (37° C.) Krebs […] buffer and oxygenated (95% O2 and 5% CO2). Segments approximately 4.5 cm long were placed on a transducer (Gilson Instruments) and a preload of 2 gm was applied. The tissue was placed in a chamber and bathed in Tyrode's solution (37.5° C.) and gassed with 95% O2 and 5% CO2. Muscle contractions were measured isometrically. After stable contractions were obtained, a study compound was added to the tissue bath and recordings made until a new steady state of contraction was obtained. Following a washout period, contractions were recorded during a new steady state period, then the procedure repeated with at a second dose of the drug being evaluated. Changes in contraction magnitude were recorded as the percentage change from baseline. This procedure is a modification of the technique described by Van Nueten and associates (Van Nueten, et al., Inhibition of dopamine receptors in the stomach: an explanation of the gastrokinetic properties of domperidone. Life Sciences 1978, 23:453-458).
# rat colon = test: Rat colon GI contractility (deflection magnitude); conditions: n = 5 per group
# Experimental: as §1, with “23:453-458). […] A segment of rat colon was suspended in a constant temperature bath as described above, and the baseline parameters measured oxygenated Tyrode's solution without erythromycin or chiral isolates.” for “23:453-458).”
# T1 sequence (P51787 whole entry): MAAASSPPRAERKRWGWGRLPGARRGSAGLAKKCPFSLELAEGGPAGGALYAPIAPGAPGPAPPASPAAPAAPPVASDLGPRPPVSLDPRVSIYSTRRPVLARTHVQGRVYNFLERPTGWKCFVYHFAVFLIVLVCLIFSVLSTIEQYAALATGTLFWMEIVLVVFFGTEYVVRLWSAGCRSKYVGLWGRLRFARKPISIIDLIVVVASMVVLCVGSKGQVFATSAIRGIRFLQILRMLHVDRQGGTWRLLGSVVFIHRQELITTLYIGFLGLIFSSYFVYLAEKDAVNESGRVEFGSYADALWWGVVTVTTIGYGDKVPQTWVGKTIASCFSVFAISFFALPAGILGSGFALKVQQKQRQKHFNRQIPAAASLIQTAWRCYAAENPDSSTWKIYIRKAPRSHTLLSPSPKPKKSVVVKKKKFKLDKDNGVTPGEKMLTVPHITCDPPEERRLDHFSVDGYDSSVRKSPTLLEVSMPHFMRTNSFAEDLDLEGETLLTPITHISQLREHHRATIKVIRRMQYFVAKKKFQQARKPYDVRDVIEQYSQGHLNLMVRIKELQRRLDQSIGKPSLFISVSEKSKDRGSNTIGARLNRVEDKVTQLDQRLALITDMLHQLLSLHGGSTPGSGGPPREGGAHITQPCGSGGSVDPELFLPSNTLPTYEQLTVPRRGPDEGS
Compound,Reduction of IKs currents (IKs currents; quinidine 10^−4 M),Reduction of IKs currents (IKs currents; quinidine 10^−6 M),"Effect on slow contractile wave amplitude, slow wave frequency and magnitude of deflection, in words (rat ileum; 10^−7 M to 10^−5 M)","Deflection Magnitude, percentage change from control (rat ileum; erythromycin 10^−5 M)","Slow Wave Amplitude, percentage change from control (rat ileum; erythromycin 10^−5 M)","Slow Wave Frequency, percentage change from control (rat ileum; erythromycin 10^−5 M)","Deflection Magnitude, percentage change from control (rat ileum; erythromycin 10^−6 M)","Slow Wave Amplitude, percentage change from control (rat ileum; erythromycin 10^−6 M)","Slow Wave Frequency, percentage change from control (rat ileum; erythromycin 10^−6 M)","Deflection Magnitude, percentage change from control (rat ileum; erythromycin 10^−7 M)","Slow Wave Amplitude, percentage change from control (rat ileum; erythromycin 10^−7 M)","Slow Wave Frequency, percentage change from control (rat ileum; erythromycin 10^−7 M)","Percent Change in Deflection Magnitude, change from control (rat colon; 10^−5 M)","Percent Change in Deflection Magnitude, change from control (rat colon; 10^−6 M)","Percent Change in Deflection Magnitude, change from control (rat colon; 10^−7 M)"
C=C[C@H]1C[N@@]2CC[C@H]1C[C@@H]2[C@@H](O)c1ccnc2ccc(OC)cc12 [quinidine],52%,14%,–,–,–,–,–,–,–,–,–,–,–,–,–
Erythromycin,–,–,dose-related increase,33%,17%,27%,22%,15%,21%,14%,12%,14%,95%,70%,33%
